Data from ChEMBL document CHEMBL4184335, “Synthesis, Structure-Activity Relationships, and Preclinical Evaluation of Heteroaromatic Amides and 1,3,4-Oxadiazole Derivatives as 5-HT4 Receptor Partial Agonists” (J Med Chem, 2018).

Tests used:
[1] = in vitro; settings: rat, liver microsomes
[2] = in vitro; settings: human, liver microsomes
[3] = in vivo; settings: Wistar, rat, po, 3 mg/kg
[4] = in vivo; settings: Wistar, rat, po, 10 mg/kg
[5] = in vivo; settings: Wistar, rat, iv, 1 mg/kg
[6] = in vivo; settings: Wistar, rat
[7] = in vivo; settings: Wistar, rat, po, 3 mg/kg; remark: listed apart in the source

metabolised at 0.5 h [1] [%] | metabolised at 0.5 h [2] [%] | Cmax [3] [ng/mL] | clearance [5] [mL/min/kg] | AUC [6] [ng·h/mL] | bioavailability [7] [%] | Kp at 1 h ([4]; brain and plasma) | Structure (SMILES) | Kp at 1 h ([4]; brain)
87.3 | 71.9 | 85 | 29 | 94 | 5.4 | 0.7 | OC1(CN2CCC(COc3noc4cccc(O[C@@H]5CCOC5)c34)CC2)CCOCC1 [PF-04995274] | 
36.9 | 22.1 | 285 | 113 | 828 | 84 |  | COCCCN1CCC(NC(=O)c2cc(Cl)c(N)c3c2OCC3)CC1 [PRUCALOPRIDE] | 
36.9 | 22.1 |  |  |  | 2 | 1.5 | CC(C)n1c(=O)c(C(=O)NCCCN2CCCCC2)c(O)c2ccsc21 [PRX-03140] | 

Structure (SMILES) | metabolised at 0.5 h [1] [%] | metabolised at 0.5 h [2] [%] | Cmax [3] [ng/mL] | clearance [5] [mL/min/kg] | AUC [6] [ng·h/mL] | bioavailability [7] [%] | Kp at 1 h ([4]; brain and plasma) | Kp at 1 h ([4]; brain)
COCCCN1CCC(CNC(=O)c2cccn3nc(C(C)C)nc23)CC1 | 23.4 | 2.7 |  |  |  |  |  | 
CC(C)c1nc(C(=O)NCC2C3CN(C4CCOCC4)CC23)n2ccccc12 (stereo unspecified) | 0 | 24.4 | 60 | 62 | 121 | 15 |  | 4
